Patent US20050261292A1, “Pharmaceutical composition containing N-sulfamoyl-N'-arylpiperazines for the treatment or inhibition of obesity and related conditions” (Solvay Pharmaceuticals GmbH, priority 2004, published 2005)
Where a name gives a salt, the structure may show the parent alone.

Columns and labels:
[1] = molecular target: T1, human carbonic anhydrase isoenzyme II (hCA II) (Homo sapiens, UniProt P00918); test: In vitro inhibition of human carbonic anhydrase isoenzyme II (hCA II), dansylamide fluorescence; type: biochemical; details: hCA II from erythrocytes 10^-7 M, 60 min, single measurements, read-out: hCA II inhibiting effect in vitro, IC50
T1 construct: human carbonic anhydrase isoenzyme II from erythrocytes (Sigma-Aldrich); purchased Sigma-Aldrich; host or cells: human erythrocytes (natural source)
Experimental: 1. In vitro Inhibition of Human Carbonic Anhydrase Isoenzyme II (hCA II)
The test compounds of Formula I in 96 well microplates were diluted with aqua bidest by using an automatic pipettor (CyBiWell®). From the different dilution plates, aliquots of 20 μl were transferred to the 96 well black assay plates with a pipetting station (Tecan Genesis®). In a second step, 148 μl of potassium phosphate buffer (20 mM, pH 7.4) was added, and as a third step, 20 μl of enzyme solution (1 μM human carbonic anhydrase isoenzyme II from erythrocytes (Sigma-Aldrich), dissolved in potassium phosphate buffer) incubated for 60 min at room temperature and the fluorescence signal (Tecan Ultra® fluorescence reader; excitation wavelength: 280 nm; emission wavelength: 465 nm) read at the end of the preincubation period (FLU-1). After the preincubation time, 20 μl of aqueous dansylamide solution (1 mM dansylamide (Sigma-Aldrich), dissolved in hydrochloric acid) were added and the fluorescence signal read every 10 min for a period of 60 min at 37° C. For calculation, the fluorescence data of the time point 60 min (FLU-2) were used. The total volume of assay mixture amounted to 208 μl. The final concentration of carbonic anhydrase II was 10^−7 M/L, of dansylamide 2.25×10^−6 and of compounds from 10^−8 M/L up to 10^−5 M/L. Final concentration of DMSO as compound solvent was […]. Each microplate also contained blanks without compound and enzyme, controls without compound and ethoxzolamide (final concentration 5×10^−8 M/L). All data reflect single measurements. Data were expressed as % inhibition after calculation by the formula: % inhibition=100((1−(FLU−2cpd−FLU−2blank−FLU−1cpd+FLU−1blank)/(FLU−2control−FLU−2blank−FLU−1control−FLU−1blank))
The % inhibition data for each compound and the respective final concentrations were used for IC50 calculations by using the Prism 4 software. Concentration action figures were calculated by applying the Prism algorithm for nonlinear regression (curve-fit): sigmoidal dose response with variable slope and the constraints: top: 100 and bottom 0.

male C57Bl/6 mice = test: Acute in vivo food intake test in mice; details: high caloric diet, 100 mg/kg/day oral gavage in two halves
Experimental: 3. Acute in vivo Food Intake Test in Mice
The studies were carried out in individually housed male C57Bl/6 mice (n=8 per group). The mice were kept on an inverted 12/12 h light/dark cycle (lights on 22:00). They were allowed food (high caloric diet) and water ad libitum. Food intake and water consumption was measured daily. The test compound of Formula I was suspended in 1% methylcellulose in water and 2% (v/v) of Poloxamer 188 (Lutrol F68®) and administered by oral gavage at a dose of 100 mg/kg/day.
In the test model described above, the test substances caused a decrease of the animals' 24 h food intake to the percentages of food intake when compared to control as given in table 3 below.

male fatty Zucker rats = test: In vivo oral glucose tolerance test in the rat; details: 100 mg/kg/day oral gavage; for Glucose Baseline / Insulin Baseline: 0 min sample before glucose challenge; for Insulin Baseline / Insulin AUC / Insulin Maximal effect: plasma; for Glucose Maximal effect / Glucose AUC / Insulin AUC / Insulin Maximal effect: oral glucose challenge 1.25 g/kg; for Glucose AUC / Insulin AUC: 0-120 min
Experimental: 2. In vivo Oral Glucose Tolerance Test in the Rat
The studies were carried out in individually housed male fatty Zucker rats (n=10 per group) weighing ca. 250-500 g. The rats were kept on a normal 12/12 h light/dark cycle (lights on 07.00) and they were allowed food (lab chow) and water ad libitum except for during experiments, when they were fasted overnight before the glucose challenge.
The test substances of Formula I were suspended in 2% polyethylenglycol (=PEG) 1% carboxymethylcellulose and administered by oral gavage at a dose of 100 mg/kg/day; ⅓ of the dose (1 ml/kg, 33 mg/ml) was administered at 08.30-09.30 h; the remaining […] (2 ml/kg; 33 mg/ml) was administered between 16.00-17.00 h and the last ⅓ dose was given the following morning. Control animals received only the vehicle. On the day of the test, 45 min after the final dose of test substance/vehicle a blood sample (0 min) was taken (tail vein) immediately after which the rats received an oral glucose challenge (1.25 g/kg; 118 mg/ml). Further blood samples were taken at 30, 60, 90, 120 min after the glucose challenge. The second drop of blood of each sample was placed on a glucose test strip before this was placed in the glucose meter for determination of blood glucose level (Life Scan One Touch Ultra Blood® Glucose Meter and Life Scan One Touch Ultra® Test Strips; Life Scan Inc.; Milpitas, Calif. 95035). The remaining blood of each sample was spun and the plasma was frozen at −80° C. before analysis for insulin (1-2-3 Rat Insulin ELISA kit, Alpco Diagnostics).
The values obtained were plotted and the AUC for test compounds and vehicle (for glucose and insulin) were determined after which the percent control AUC, percent control maximum value and % control baseline were estimated, to determine the influence of the test compound on the glucose tolerance.

Row | SMILES | IC50 [1] [nM] | melting point [°C] | other results
1 | Cc1cccc(N2CCN(S(N)(=O)=O)CC2)c1C [Example 8] | 1700 | – | –
2 | NS(=O)(=O)N1CCN(c2ccccn2)CC1 [Example 4, 4-Pyridin-2-yl-piperazine-1-sulfonic acid amide] | 3700 | – | –
3 | Cc1cccc(N2CCN(S(N)(=O)=O)CC2)c1C (as salt: HCl) [Example 8] | – | 202 | –
4 | NS(=O)(=O)N1CCN(c2cc(C(F)(F)F)nc3ccccc23)CC1 [Example 17] | 1900 | – | –
5 | NS(=O)(=O)N1CCN(c2cccc(Cl)c2)CC1 [Example 10] | 4000 | – | –
6 | NS(=O)(=O)N1CCN(c2ncc(C(F)(F)F)cc2Cl)CC1 (as salt: HCl) [Example 14, 4-(3-chloro-5-trifluoromethyl-pyridin-2-yl)-piperazine-1-sulfonic acid amide] | – | 159 | –
7 | CC(=O)c1ccc(N2CCN(S(N)(=O)=O)CC2)cc1 [Example 15] | 400 | – | 24 h food intake (male C57Bl/6 mice): 79 % of control
8 | NS(=O)(=O)N1CCN(c2ccncc2)CC1 (as salt: HCl) [Example 6, 4-pyridin-4-yl-piperazine-1-sulfonic acid amide] | – | 243 | –
9 | NS(=O)(=O)N1CCN(c2ncccn2)CC1 [Example 7, 4-pyrimidin-2-yl-piperazine-1-sulfonic acid amide] | 1800 | – | 24 h food intake (male C57Bl/6 mice): 78 % of control
10 | NS(=O)(=O)N1CCN(c2ccc(F)cc2)CC1 (as salt: HCl) [Example 9, 4-(4-fluoro-phenyl)-piperazine-1-sulfonic acid amide] | – | 125 | –
11 | NS(=O)(=O)N1CCN(c2ccc(C(F)(F)F)cn2)CC1 [Example 19] | 80 | – | –
12 | NS(=O)(=O)N1CCN(c2ccc(C(F)(F)F)cc2[N+](=O)[O-])CC1 [Example 20] | 300 | – | –
13 | NS(=O)(=O)N1CCN(c2ccc(Cl)c(C(F)(F)F)c2)CC1 [Example 12, 4-(4-chloro-3-trifluoromethyl-phenyl)-piperazine-1-sulfonic acid amide] | 1200 | – | 24 h food intake (male C57Bl/6 mice): 53 % of control
14 | NS(=O)(=O)N1CCN(c2c(Cl)cncc2Cl)CC1 [Example 16] | 300 | – | –
15 | Cc1ccc(Cl)cc1N1CCN(S(N)(=O)=O)CC1 [Example 11] | 500 | – | –
16 | NS(=O)(=O)N1CCN(c2ccncc2)CC1 [Example 6, 4-pyridin-4-yl-piperazine-1-sulfonic acid amide] | – | – | Glucose Baseline (male fatty Zucker rats): 91 % of control; Insulin Baseline (male fatty Zucker rats): 109 % of control; Glucose Maximal effect (male fatty Zucker rats): 84 % of control; Glucose AUC (male fatty Zucker rats): 89 % of control; Insulin AUC (male fatty Zucker rats): 104 % of control; Insulin Maximal effect (male fatty Zucker rats): 123 % of control

Row | SMILES | IC50 [1] [nM] | melting point [°C] | other results
17 | NS(=O)(=O)N1CCN(c2c(Cl)cncc2Cl)CC1 (as salt: HCl) [Example 16] | – | 206 | –
18 | NS(=O)(=O)N1CCN(c2ncc(C(F)(F)F)cc2Cl)CC1 [Example 14, 4-(3-chloro-5-trifluoromethyl-pyridin-2-yl)-piperazine-1-sulfonic acid amide] | 200 | – | Glucose Baseline (male fatty Zucker rats): 88 % of control; Insulin Baseline (male fatty Zucker rats): 97 % of control; Glucose Maximal effect (male fatty Zucker rats): 94 % of control; Glucose AUC (male fatty Zucker rats): 102 % of control; Insulin AUC (male fatty Zucker rats): 107 % of control; Insulin Maximal effect (male fatty Zucker rats): 92 % of control
19 | NS(=O)(=O)N1CCN(c2nccc(C(F)(F)F)n2)CC1 [Example 18] | 1600 | – | –
20 | CC(=O)c1ccc(N2CCN(S(N)(=O)=O)CC2)cc1 (as salt: HCl) [Example 15] | – | 156 | –
21 | CS(=O)(=O)c1ccc(N2CCN(S(N)(=O)=O)CC2)c(F)c1 (as salt: HCl) [Example 21] | – | 184 | –
22 | NS(=O)(=O)N1CCN(c2nccc(C(F)(F)F)n2)CC1 (as salt: HCl) [Example 18] | – | 156 | –
23 | NS(=O)(=O)N1CCN(c2ccc(Cl)c(C(F)(F)F)c2)CC1 (as salt: HCl) [Example 12, 4-(4-chloro-3-trifluoromethyl-phenyl)-piperazine-1-sulfonic acid amide] | – | 180 | –
24 | NS(=O)(=O)N1CCN(c2ccc(F)cc2)CC1 [Example 9, 4-(4-fluoro-phenyl)-piperazine-1-sulfonic acid amide] | 7300 | – | –
25 | CS(=O)(=O)c1ccc(N2CCN(S(N)(=O)=O)CC2)c(F)c1 [Example 21] | 200 | – | 24 h food intake (male C57Bl/6 mice): 76 % of control
26 | NS(=O)(=O)N1CCN(c2cc(C(F)(F)F)nc3ccccc23)CC1 (as salt: HCl) [Example 17] | – | 191 | –
27 | NS(=O)(=O)N1CCN(c2ccc(C(F)(F)F)cn2)CC1 (as salt: HCl) [Example 19] | – | 169 | –
28 | N#Cc1cccnc1N1CCN(S(N)(=O)=O)CC1 (as salt: HCl) [Example 13] | – | 190 | –
29 | Cc1ccc(Cl)cc1N1CCN(S(N)(=O)=O)CC1 (as salt: HCl) [Example 11] | – | 190 | –
30 | N#Cc1cccnc1N1CCN(S(N)(=O)=O)CC1 [Example 13] | 900 | – | –
31 | NS(=O)(=O)N1CCN(c2ccc(C(F)(F)F)cc2[N+](=O)[O-])CC1 (as salt: HCl) [Example 20] | – | 134 | –
32 | COc1ccccc1N1CCN(S(N)(=O)=O)CC1 [Example 3, 4-(2-Methoxy-phenyl)-piperazine-1-sulfonic acid amide hydrochloride] | 7800 | – | –
